Drawing on ChEMBL document CHEMBL5390281, this text covers Activity for three compounds.

Assay type in all cases: functional, organism-based
In assay [1] the test system is Mus musculus. Briefly: Antinociceptive activity against noxious cold stimulated-persistent inflammation model of Swiss mouse assessed as reduction in pain like behavior at 5 mg/kg, ip pretreated with compound for 40 min followed by noxious cold stimulation and measured after 3 days in the presence of naloxone by cold plate test. To be noted: time 4360.0 min.
In assay [2] the test system is Mus musculus. Briefly: Antinociceptive activity in Swiss mouse assessed as reduction in pain like behavior of mouse in first phase at 5 mg/kg, ip pretreated for 40 min followed by formalin challenge and measured after 30 min. The conditions noted are these: time 70.0 min.
Assay [3] deals with Mus musculus. Briefly: Antinociceptive activity against thermal stimulated-induced persistent inflammation model of Swiss mouse assessed as increased tail flick latency at 5 mg/kg, ip pretreated with compound for 40 min followed thermal stimulation and measured after 3 days in the presence of naloxone by tail flick test. The conditions noted are these: time 4360.0 min. (In general: Hot-plate and tail-flick tests time the reaction to a heat stimulus.)

The subject of assay [4] is Mus musculus. The assay is described as follows: Antinociceptive activity against noxious cold stimulated-induced persistent inflammation model of Swiss mouse assessed as reduction in pain like behavior at 5 mg/kg, ip pretreated with compound for 40 min followed by noxious cold stimulation and measured after 2 hrs by cold plate test. The conditions noted are these: time 160.0 min.

Assay [5] relates to Mus musculus. The assay is described as follows: Antinociceptive activity against thermal stimulated-induced persistent inflammation model of Swiss mouse assessed as increased tail flick latency at 5 mg/kg, ip pretreated with compound for 40 mins followed by thermal induction and measured after 2 hrs by tail flick test. The conditions noted are these: time 160.0 min.
Assay [6] relates to Mus musculus. Briefly: Antinociceptive activity in Swiss mouse assessed as reduction in pain like behavior of mouse in second phase at 5 mg/kg, ip pretreated for 40 min followed by formalin challenge and measured after 30 min. To be noted: time 70.0 min.
Assay [7] relates to Mus musculus. Briefly: Antiinflammatory activity against CFA-induced persistent inflammation model of Swiss mouse assessed as prevention in paw edema formation at 2 mg/kg, ip incubated for 40 mins by plethysmometer analysis.
The test system of assay [8] is Mus musculus. Briefly: Antinociceptive activity against CFA-induced persistent inflammation model of Swiss mouse assessed as prevention in CFA-induced allodynia at 2 mg/kg, ip incubated for 40 mins by von frey test.

Active and inactive are the calls of the source. The rule behind the calls is not given here.

For the compound `CN1CC[C@]23c4c5ccc(O)c4O[C@H]2[C@@H](O)C=C[C@H]3[C@H]1C5`, the outcome in the assay on Mus musculus [1] and in the assay with Mus musculus [3] was inactive. Besides, the outcome in the assay on Mus musculus [2], with Mus musculus [4], in the assay with Mus musculus [5] and in the assay with Mus musculus [6] was Active.

For `COc1ccc2c(c1)c(CC(=O)O)c(C)n2C(=O)c1ccc(Cl)cc1`, in the assay with Mus musculus [2], the result was inactive. In addition, the outcome in the assay with Mus musculus [6] was Active.

Take `C[C@@H]1C[C@H]2[C@@H]3CCC4=CC(=O)C=C[C@]4(C)[C@@]3(F)[C@@H](O)C[C@]2(C)[C@@]1(O)C(=O)CO`: the outcome in the assay on Mus musculus [7] and in the assay with Mus musculus [8] was Active.
